# Experimental data taken from article PMC8578332 (Scientific Reports, 2021).
# Where a SMILES comes first, the peptide text is derived from it. Bridges are numbered along the chain shown (N, C = ends).
# Target: human α7-containing nAChRs (Homo sapiens, UniProt P36544)
# Test: cell-based
# Assay type: cell-based
# Conditions: not given
# Sequence of human α7-containing nAChRs (P36544 23-502 limits assumed): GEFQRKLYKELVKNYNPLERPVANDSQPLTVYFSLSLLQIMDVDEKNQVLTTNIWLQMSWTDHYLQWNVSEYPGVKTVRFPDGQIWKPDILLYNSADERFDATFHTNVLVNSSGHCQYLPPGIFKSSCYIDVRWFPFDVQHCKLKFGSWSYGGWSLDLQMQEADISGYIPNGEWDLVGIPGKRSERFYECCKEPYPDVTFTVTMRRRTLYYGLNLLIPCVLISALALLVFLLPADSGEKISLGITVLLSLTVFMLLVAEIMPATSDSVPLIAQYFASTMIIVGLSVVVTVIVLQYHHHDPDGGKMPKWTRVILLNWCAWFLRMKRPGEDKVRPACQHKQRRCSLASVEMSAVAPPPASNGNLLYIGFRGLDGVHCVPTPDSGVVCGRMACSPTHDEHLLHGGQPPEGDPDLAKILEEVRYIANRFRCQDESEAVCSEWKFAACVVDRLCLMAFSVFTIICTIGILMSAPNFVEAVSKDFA
Structure (SMILES),IC50 [µM],antagonistic activity / potency at α7-containing nAChRs in words,Ratio (IC50 ratio between gAusIA/rAusIA and its corresponding analogues)
"CC(C)C[C@@H]1NC(=O)[C@H](CCCNC(=N)N)NC(=O)[C@@H]2CSSC[C@H](NC(=O)[C@@H](N)CO)C(=O)N[C@@H](CSSC[C@@H](C(=O)N[C@H](C(N)=O)C(C)C)NC(=O)[C@@H]3CCCN3C(=O)[C@H](Cc3c[nH]cn3)NC(=O)[C@H](CC(N)=O)NC1=O)C(=O)N[C@@H](C)C(=O)N[C@@H](CCCNC(=N)N)C(=O)N[C@@H](CC(N)=O)C(=O)N1CCC[C@H]1C(=O)N[C@@H](C)C(=O)N2 [gAusIA [H11L]] (H-SCCARNPACRLNHPCV-NH2; disulfide 2-9, 3-15)",> 100,inactive,
"CC(C)[C@H](NC(=O)[C@@H]1CSSC[C@@H]2NC(=O)[C@@H](NC(=O)[C@@H](N)CO)CSSC[C@H](NC(=O)[C@H](C)NC(=O)[C@H](C)NC(=O)[C@H](CC(N)=O)NC(=O)[C@H](CCCNC(=N)N)NC(=O)[C@H](C)NC2=O)C(=O)N[C@@H](CCCNC(=N)N)C(=O)N[C@@H](Cc2c[nH]cn2)C(=O)N[C@@H](CC(N)=O)C(=O)N[C@@H](Cc2c[nH]cn2)C(=O)N2CCC[C@H]2C(=O)N1)C(N)=O [gAusIA [P7A]] (H-SCCARNAACRHNHPCV-NH2; disulfide 2-9, 3-15)",> 100,,
"CC(C)[C@H](NC(=O)[C@@H]1CSSC[C@@H]2NC(=O)[C@@H](NC(=O)[C@@H](N)CO)CSSC[C@H](NC(=O)[C@H](C)NC(=O)[C@@H]3CCCN3C(=O)[C@H](CC(N)=O)NC(=O)[C@H](C)NC(=O)[C@H](C)NC2=O)C(=O)N[C@@H](CCCNC(=N)N)C(=O)N[C@@H](Cc2c[nH]cn2)C(=O)N[C@@H](CC(N)=O)C(=O)N[C@@H](Cc2c[nH]cn2)C(=O)N2CCC[C@H]2C(=O)N1)C(N)=O [gAusIA [R5A]] (H-SCCAANPACRHNHPCV-NH2; disulfide 2-9, 3-15)",> 100,,
"CC(C)[C@H](NC(=O)[C@@H]1CSSC[C@@H]2NC(=O)[C@@H](NC(=O)[C@@H](N)CO)CSSC[C@H](NC(=O)[C@H](C)NC(=O)[C@@H]3CCCN3C(=O)[C@H](CC(N)=O)NC(=O)[C@H](CO)NC(=O)[C@H](C)NC2=O)C(=O)N[C@@H](CCCNC(=N)N)C(=O)N[C@@H](Cc2c[nH]cn2)C(=O)N[C@@H](CC(N)=O)C(=O)N[C@@H](Cc2c[nH]cn2)C(=O)N2CCC[C@H]2C(=O)N1)C(N)=O [gAusIA [R5S]] (H-SCCASNPACRHNHPCV-NH2; disulfide 2-9, 3-15)",> 100,,
"CC(C)[C@H](NC(=O)[C@@H]1CSSC[C@@H]2NC(=O)[C@@H](NC(=O)[C@@H](N)CO)CSSC[C@H](NC(=O)[C@H](C)NC(=O)[C@@H]3CCCN3C(=O)[C@H](CC(N)=O)NC(=O)[C@H](CCCNC(=N)N)NC(=O)[C@H](C)NC2=O)C(=O)N[C@@H](C)C(=O)N[C@@H](Cc2c[nH]cn2)C(=O)N[C@@H](CC(N)=O)C(=O)N[C@@H](Cc2c[nH]cn2)C(=O)N2CCC[C@H]2C(=O)N1)C(N)=O [gAusIA [R10A]] (H-SCCARNPACAHNHPCV-NH2; disulfide 2-9, 3-15)",> 100,,
"CC(C)[C@H](NC(=O)[C@@H]1CSSC[C@@H]2NC(=O)[C@@H](NC(=O)CN)CSSC[C@H](NC(=O)[C@H](C)NC(=O)[C@@H]3CCCN3C(=O)[C@H](CC(N)=O)NC(=O)[C@H](CCCNC(=N)N)NC(=O)[C@H](C)NC2=O)C(=O)N[C@@H](CCCNC(=N)N)C(=O)N[C@@H](Cc2c[nH]cn2)C(=O)N[C@@H](CC(N)=O)C(=O)N[C@@H](Cc2c[nH]cn2)C(=O)N2CCC[C@H]2C(=O)N1)C(N)=O [gAusIA [S1G]] (H-GCCARNPACRHNHPCV-NH2; disulfide 2-9, 3-15)",,comparable potency to gAusIA,0.70

# Same assay, conditions: SEM
row,Structure (SMILES),IC50 [µM]
1,"CC(C)[C@H](NC(=O)[C@@H]1CSSC[C@@H]2NC(=O)[C@@H](NC(=O)[C@@H](N)CO)CSSC[C@H](NC(=O)[C@H](C)NC(=O)[C@@H]3CCCN3C(=O)[C@H](CC(N)=O)NC(=O)[C@H](CO)NC2=O)C(=O)N[C@@H](CCCNC(=N)N)C(=O)N[C@@H](Cc2c[nH]cn2)C(=O)N[C@@H](CC(N)=O)C(=O)N[C@@H](Cc2c[nH]cn2)C(=O)N2CCC[C@H]2C(=O)N1)C(N)=O [gAusIA [A4S ∆5]] (H-SCCSNPACRHNHPCV-NH2; disulfide 2-8, 3-14)",0.428 ± 0.112
2,"CC(C)[C@H](NC(=O)[C@@H]1CSSC[C@@H]2NC(=O)[C@@H](NC(=O)[C@@H](N)CO)CSSC[C@H](NC(=O)[C@H](C)NC(=O)[C@@H]3CCCN3C(=O)[C@H](CC(N)=O)NC(=O)[C@H](CCCNC(=N)N)NC(=O)[C@H](CO)NC2=O)C(=O)N[C@@H](CCCNC(=N)N)C(=O)N[C@@H](Cc2c[nH]cn2)C(=O)N[C@@H](CC(N)=O)C(=O)N[C@@H](Cc2c[nH]cn2)C(=O)N2CCC[C@H]2C(=O)N1)C(N)=O [gAusIA [A4S]] (H-SCCSRNPACRHNHPCV-NH2; disulfide 2-9, 3-15)",70 ± 12.9
3,"CC(C)[C@H](NC(=O)[C@@H]1CSSC[C@@H]2NC(=O)[C@@H](NC(=O)[C@@H](N)CO)CSSC[C@H](NC(=O)[C@H](C)NC(=O)[C@@H]3CCCN3C(=O)[C@H](CC(N)=O)NC(=O)[C@H](CCCNC(=N)N)NC2=O)C(=O)N[C@@H](CCCNC(=N)N)C(=O)N[C@@H](Cc2c[nH]cn2)C(=O)N[C@@H](CC(N)=O)C(=O)N[C@@H](Cc2c[nH]cn2)C(=O)N2CCC[C@H]2C(=O)N1)C(N)=O [gAusIA [∆4]] (H-SCCRNPACRHNHPCV-NH2; disulfide 2-8, 3-14)",1 ± 0.03
4,"C[C@@H]1NC(=O)[C@@H]2CSSC[C@@H](C(N)=O)NC(=O)[C@@H]3CCCN3C(=O)[C@H](Cc3c[nH]cn3)NC(=O)[C@H](CC(N)=O)NC(=O)[C@H](Cc3c[nH]cn3)NC(=O)[C@H](CCCNC(=N)N)NC(=O)[C@H](CSSC[C@H](NC(=O)[C@@H](N)CO)C(=O)N2)NC(=O)[C@H](C)NC(=O)[C@@H]2CCCN2C(=O)[C@H](CC(N)=O)NC1=O [gAusIA [∆5 ∆16]] (H-SCCANPACRHNHPC-NH2; disulfide 2-8, 3-14)",0.241 ± 0.062
5,"CC(C)[C@H](NC(=O)[C@@H]1CSSC[C@@H]2NC(=O)[C@@H](NC(=O)[C@@H](N)CO)CSSC[C@H](NC(=O)[C@H](C)NC(=O)[C@@H]3CCCN3C(=O)[C@H](CC(N)=O)NC(=O)[C@H](C)NC2=O)C(=O)N[C@@H](CCCNC(=N)N)C(=O)N[C@@H](Cc2c[nH]cn2)C(=O)N[C@@H](CC(N)=O)C(=O)N[C@@H](Cc2c[nH]cn2)C(=O)N2CCC[C@H]2C(=O)N1)C(N)=O [gAusIA [∆5]] (H-SCCANPACRHNHPCV-NH2; disulfide 2-8, 3-14)",0.59 ± 0.08
6,"C[C@@H]1NC(=O)[C@@H]2CSSC[C@@H](C(N)=O)NC(=O)[C@@H]3CCCN3C(=O)[C@H](Cc3c[nH]cn3)NC(=O)[C@H](CC(N)=O)NC(=O)[C@H](Cc3c[nH]cn3)NC(=O)[C@H](CCCNC(=N)N)NC(=O)[C@H](CSSC[C@H](NC(=O)[C@@H](N)CO)C(=O)N2)NC(=O)[C@H](C)NC(=O)[C@@H]2CCCN2C(=O)[C@H](CC(N)=O)NC(=O)[C@H](CCCNC(=N)N)NC1=O [gAusIA [∆16]] (H-SCCARNPACRHNHPC-NH2; disulfide 2-9, 3-15)",12 ± 2.3
7,"CC[C@H](C)[C@@H]1NC(=O)[C@H](CC(N)=O)NC(=O)[C@@H]2CCCN2C(=O)[C@H](CC(N)=O)NC(=O)[C@H](CC(N)=O)NC(=O)[C@H](C(C)C)NC(=O)[C@H](CCCNC(=N)N)NC(=O)[C@@H]2CSSC[C@H](NC(=O)CNC(=O)[C@@H](N)CO)C(=O)N[C@@H](CSSC[C@@H](C(N)=O)NC1=O)C(=O)N[C@@H](CCCNC(=N)N)C(=O)N[C@@H](CC(N)=O)C(=O)N1CCC[C@H]1C(=O)N[C@@H](C)C(=O)N2 [gLsIA [S5R]] (H-SGCCRNPACRVNNPNIC-NH2; disulfide 3-9, 4-17)",0.24 ± 0.04
8,"CC[C@H](C)[C@@H]1NC(=O)[C@H](CC(N)=O)NC(=O)[C@@H]2CCCN2C(=O)[C@H](CC(N)=O)NC(=O)[C@H](CC(N)=O)NC(=O)[C@H](C(C)C)NC(=O)[C@H](CCCNC(=N)N)NC(=O)[C@@H]2CSSC[C@H](NC(=O)CNC(=O)[C@@H](N)CO)C(=O)N[C@@H](CSSC[C@@H](C(N)=O)NC1=O)C(=O)N[C@@H](C)C(=O)N[C@@H](CO)C(=O)N[C@@H](CC(N)=O)C(=O)N1CCC[C@H]1C(=O)N[C@@H](C)C(=O)N2 [gLsIA [∇A5]] (H-SGCCASNPACRVNNPNIC-NH2; disulfide 3-10, 4-18)",48 ± 13.2
9,"CC[C@H](C)[C@@H]1NC(=O)[C@H](CC(N)=O)NC(=O)[C@@H]2CCCN2C(=O)[C@H](CC(N)=O)NC(=O)[C@H](CC(N)=O)NC(=O)[C@H](C(C)C)NC(=O)[C@H](CCCNC(=N)N)NC(=O)[C@@H]2CSSC[C@H](NC(=O)CNC(=O)[C@@H](N)CO)C(=O)N[C@@H](CSSC[C@@H](C(N)=O)NC1=O)C(=O)N[C@@H](CO)C(=O)N[C@@H](CCCNC(=N)N)C(=O)N[C@@H](CC(N)=O)C(=O)N1CCC[C@H]1C(=O)N[C@@H](C)C(=O)N2 [gLsIA [∇R6]] (H-SGCCSRNPACRVNNPNIC-NH2; disulfide 3-10, 4-18)",8 ± 0.52
10,"CC(C)[C@H](NC(=O)[C@@H]1CSSC[C@H](NC(=O)[C@@H](N)CO)C(=O)N[C@H]2CSSC[C@H](NC(=O)[C@H](C)NC(=O)[C@@H]3CCCN3C(=O)[C@H](CC(N)=O)NC(=O)[C@H](CO)NC2=O)C(=O)N[C@@H](CCCNC(=N)N)C(=O)N[C@@H](Cc2c[nH]cn2)C(=O)N[C@@H](CC(N)=O)C(=O)N[C@@H](Cc2c[nH]cn2)C(=O)N2CCC[C@H]2C(=O)N1)C(N)=O [rAusIA [A4S ∆5]] (H-SCCSNPACRHNHPCV-NH2; disulfide 2-14, 3-8)",29 ± 1.1
11,"CC(C)[C@H](NC(=O)[C@@H]1CSSC[C@H](NC(=O)[C@@H](N)CO)C(=O)N[C@H]2CSSC[C@H](NC(=O)[C@H](C)NC(=O)[C@@H]3CCCN3C(=O)[C@H](CC(N)=O)NC(=O)[C@H](CCCNC(=N)N)NC(=O)[C@H](CO)NC2=O)C(=O)N[C@@H](CCCNC(=N)N)C(=O)N[C@@H](Cc2c[nH]cn2)C(=O)N[C@@H](CC(N)=O)C(=O)N[C@@H](Cc2c[nH]cn2)C(=O)N2CCC[C@H]2C(=O)N1)C(N)=O [rAusIA [A4S]] (H-SCCSRNPACRHNHPCV-NH2; disulfide 2-15, 3-9)",32 ± 7.3
12,"CC(C)C[C@@H]1NC(=O)[C@H](CCCNC(=N)N)NC(=O)[C@@H]2CSSC[C@H](NC(=O)[C@@H](NC(=O)[C@@H](N)CO)CSSC[C@@H](C(=O)N[C@H](C(N)=O)C(C)C)NC(=O)[C@@H]3CCCN3C(=O)[C@H](Cc3c[nH]cn3)NC(=O)[C@H](CC(N)=O)NC1=O)C(=O)N[C@@H](C)C(=O)N[C@@H](CCCNC(=N)N)C(=O)N[C@@H](CC(N)=O)C(=O)N1CCC[C@H]1C(=O)N[C@@H](C)C(=O)N2 [rAusIA [H11L]] (H-SCCARNPACRLNHPCV-NH2; disulfide 2-15, 3-9)",30 ± 2.2
